Active and inactive are the calls of the source.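 How the source made its calls: active means switches on the TRPC4 calcium channel at some tested dose and gives a concentration response curve; inactive means the rest.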
What follows are compounds tested against TRPC4 (mouse), transient receptor potential cation channel C4 (assay: TRPC4 channel activators, dose response, cell-based, HEK293 TRPC4/mu-opioid, Fluo-4 calcium flux (AID 493211)). Details: HEK293 TRPC4/mu-opioid cells, Fluo-4 calcium fluorescence ratio.
Compound `CN1CCN(c2ccc([N+](=O)[O-])c3cccnc23)CC1` has an EC50 of 9.12 nM.

Same assay, conditions: HEK293 TRPC4/mu-opioid cells, Fluo-4 calcium fluorescence ratio; at 20 µM (top of the series)
For `CC(C)(C)OC(=O)N1CCN(c2ccc([N+](=O)[O-])c3cccnc23)CC1`, the “fluorescence ratio, percent of baseline (100 = none)” value (shortened to “fluorescence ratio, percent”) was “inactive”.
`CCN(CC)c1ccc([N+](=O)[O-])c2cccnc12` was tested, and the “fluorescence ratio, percent” value was “inactive”.
With `COC(=O)C1CCCN(c2ccc([N+](=O)[O-])c3cccnc23)C1` (stereo not drawn) the “fluorescence ratio, percent” value was “inactive”.
For `O=[N+]([O-])c1ccc(N2CCC3(C=Cc4ccccc43)CC2)c2ncccc12`, the “fluorescence ratio, percent” value was “inactive”.
`N#Cc1ccccc1C1CCN(c2ccc([N+](=O)[O-])c3cccnc23)CC1` was tested, and the “fluorescence ratio, percent” value was “inactive”.
`C[C@H]1CCCN1c1ccc([N+](=O)[O-])c2cccnc12` was tested, and the “fluorescence ratio, percent” value was “inactive”.
For `O=[N+]([O-])c1ccc(N2CCN(c3ccc(F)cc3F)CC2)c2ncccc12`, the “fluorescence ratio, percent” value was “inactive”.
In the case of `C[C@@H]1CN(c2ccc([N+](=O)[O-])c3cccnc23)[C@@H](C)CN1`, the “fluorescence ratio, percent” value is reported as “inactive”.
For `O=[N+]([O-])c1ccc(N2CCN(c3ncccn3)CC2)c2ncccc12`, the “fluorescence ratio, percent” value was “inactive”.
With `O=C1NCCC1Nc1ccc([N+](=O)[O-])c2cccnc12` (stereo not drawn) the “fluorescence ratio, percent” value was “inactive”.
In the case of `O=C1CC(Nc2ccc([N+](=O)[O-])c3cccnc23)CN1` (stereo not drawn), the “fluorescence ratio, percent” value is reported as “inactive”.
`O=[N+]([O-])c1ccc(N2CCC2)c2ncccc12` was tested, and the “fluorescence ratio, percent” value was “inactive”.
In the case of `N#Cc1ccccc1N1CCN(c2ccc([N+](=O)[O-])c3cccnc23)CC1`, the “fluorescence ratio, percent” value is reported as “inactive”.
In the case of `COc1ccccc1N1CCN(c2ccc([N+](=O)[O-])c3cccnc23)CC1`, the “fluorescence ratio, percent” value is reported as “inactive”.
In the case of `O=[N+]([O-])c1ccc(N2CCC3(CCc4ccccc43)CC2)c2ncccc12`, the “fluorescence ratio, percent” value is reported as “inactive”.
`O=[N+]([O-])c1ccc(N2CCN(c3ccncc3)CC2)c2ncccc12` was tested, and the “fluorescence ratio, percent” value was “inactive”.
For `O=[N+]([O-])c1ccc(N2CCN(c3ccccn3)CC2)c2ncccc12`, the “fluorescence ratio, percent” value was “inactive”.
In the case of `CC1CC(C)CN(c2ccc([N+](=O)[O-])c3cccnc23)C1` (stereo not drawn), the “fluorescence ratio, percent” value is reported as “inactive”.
`COc1ccc(N2CCN(c3ccc([N+](=O)[O-])c4cccnc34)CC2)cc1` was tested, and the “fluorescence ratio, percent” value was “inactive”.
With `O=[N+]([O-])c1ccc(N2CCOc3ccccc32)c2ncccc12` the “fluorescence ratio, percent” value was “inactive”.
`CCOC(=O)NC1CCN(c2ccc([N+](=O)[O-])c3cccnc23)CC1` was tested, and the “fluorescence ratio, percent” value was “inactive”.
For `O=[N+]([O-])c1ccc(N2CCOCC2)c2ncccc12`, the “fluorescence ratio, percent” value was “inactive”.

— PubChem BioAssay AID493211 (Johns Hopkins Ion Channel Center, 2011)
